SMILES strings stand for the structures. Like-named read-outs stand apart in the source and are kept apart here.

The source of these data is article PMC10465233, “Lys-urea-Aad, Lys-urea-Cmc and Lys-urea-Cms as potential pharmacophores for the design of PSMA-targeted radioligands to reduce off-target uptake in kidneys and salivary glands” (Theranostics, 2023).

Details of data set [1]: method as in earlier work. The conditions noted are these: cited from earlier work.
Data set [2] has as its system LNCaP tumor-bearing mice. The data set is described as follows: Radioligand therapy study in LNCaP tumor-bearing mice. The format is in vivo, mouse. The conditions noted are these: 37 MBq injected. As for the experimental part: Imaging, biodistribution and radioligand therapy experiments were performed following previously published procedures using male NOD-scid IL2Rg^null (NSG) or NOD.Cg-Rag1^tm1MomIl2rg^tm1Wjl/SzJ (NRG) mice [10]-[12],[14]-[15]. The experiments were conducted according to the guidelines established by the Canadian Council on Animal Care and approved by Animal Ethics Committee of the University of British Columbia. The mice were briefly sedated by inhalation of 2% isoflurane in oxygen, and implanted subcutaneously with 1×10^7 LNCaP cells behind the left shoulder. The mice were imaged or used in biodistribution studies when the tumor grew to 5-8 mm in diameter over a period of 4-5 weeks.
For radiotherapy study, tumor-bearing mice were injected with saline (the control group), [^177Lu]Lu-PSMA-617 (37 MBq) or [^177Lu]-HTK03170 (37, 18.5 and 9.3 MBq) (n = 7-8 per treatment group). Tumor size and body weight were measured twice a week from the date of injection (Day 0) until completion of the study (Day 180). Endpoint criteria were defined as > 20% weight loss, tumor volume > 1000 mm^3, or active ulceration of the tumor.

The subject of data set [3] is LNCaP tumor-bearing mice. The conditions noted are these: cited from earlier work.
[4] abbreviates: vs Glu-containing [^68Ga]Ga-HTK03041, 1 h post-injection.

Take `O=C([O-])CN1CCN(CC(=O)[O-])CCN(CC(=O)NCC2CCC(C(=O)NC(Cc3ccc4ccccc4c3)C(=O)NCCCCC(NC(=O)NC(CCC(=O)O)C(=O)O)C(=O)O)CC2)CCN(CC(=O)[O-])CC1.[177Lu+3]` (stereo not drawn) [[^177Lu]Lu-PSMA-617]: the Kinetics value in data set [1] (source organ Brain) is given as 6.64E-03 MBq-h/MBq; in data set [1] (source organ Heart), 3.28E-03 MBq-h/MBq; in data set [1] (source organ Kidneys) it was 8.23E-01 MBq-h/MBq; in data set [1] (source organ Large intestine contents) it was 8.80E-03 MBq-h/MBq; in data set [1] (source organ Liver) it was 6.38E-02 MBq-h/MBq; in data set [1] (source organ Lungs), 4.85E-03 MBq-h/MBq. In addition, the Kinetics value is 4.76E-03 MBq-h/MBq in data set [1] (source organ Pancreas); 1.68E-01 MBq-h/MBq in data set [1] (source organ Remainder of the body); 2.63E-02 MBq-h/MBq in data set [1] (source organ Small intestine); 1.41E-02 MBq-h/MBq in data set [1] (source organ Spleen); 2.34E-04 MBq-h/MBq in data set [1] (source organ Stomach); 4.23E-03 MBq-h/MBq in data set [1] (source organ Testes). In addition, the Kinetics value in data set [1] (source organ Thyroid) was 4.01E-04 MBq-h/MBq; in data set [1] (source organ Urinary bladder) it was 8.04E-01 MBq-h/MBq. In the data set on LNCaP tumor-bearing mice [2], this compound showed a Median survival of 63 days.
With `O=C([O-])CN1CCN(CC(=O)[O-])CCN(CC(=O)NCC2CCC(C(=O)NC(Cc3c4ccccc4cc4ccccc34)C(=O)NCCCCC(NC(=O)NC(CCCC(=O)O)C(=O)O)C(=O)O)CC2)CCN(CC(=O)[O-])CC1.[68Ga+3]` (stereo not drawn) [[^68Ga]Ga-HTK03149], in the data set with LNCaP tumor-bearing mice [3] (1 h post-injection), the Kidney uptake is on record as 4.15±1.46 %ID/g and the Tumor uptake is 19.1±6.37 %ID/g. Besides, the Tumor uptake in the data set with LNCaP tumor-bearing mice [3] (1 h post-injection, listed as [^68Ga]HTK03149) is reported as ~ 20 %ID/g. Further, in the data set with LNCaP tumor-bearing mice [3] (1 h post-injection, unreported data in b5), the Salivary gland uptake is recorded as 0.22±0.06 %ID/g. Moreover, in the data set with LNCaP tumor-bearing mice [3] (setting [4]), the “Reduction in kidney uptake” value is reported as > 95% and the “Reduction in salivary gland uptake” value is on record as > 95%.
